# Results from patent US3935236A, “Aminopropanol substituted isochromanones and phthalides” (Gruppo Lepetit, S.p.A., priority 1973, dated 1976).
# Read-outs that look alike come from different tables or passages of the source.
# How the values were obtained:
# β-receptors = target: T1, β-receptors (Canis lupus familiaris, UniProt P79148); experiment: antagonizing isopropylnoradrenaline induced tachycardia in conscious dogs (i.v.); type: in vivo; settings: dog, iv, read-out: ED50 in antagonizing isopropylnoradrenaline induced tachycardia
# T1 construct: tachycardia in conscious dogs; from tissue; host or cells: heart in the living conscious dog (in vivo, i.v. dosing)
# T1 sequence (P79148 whole entry): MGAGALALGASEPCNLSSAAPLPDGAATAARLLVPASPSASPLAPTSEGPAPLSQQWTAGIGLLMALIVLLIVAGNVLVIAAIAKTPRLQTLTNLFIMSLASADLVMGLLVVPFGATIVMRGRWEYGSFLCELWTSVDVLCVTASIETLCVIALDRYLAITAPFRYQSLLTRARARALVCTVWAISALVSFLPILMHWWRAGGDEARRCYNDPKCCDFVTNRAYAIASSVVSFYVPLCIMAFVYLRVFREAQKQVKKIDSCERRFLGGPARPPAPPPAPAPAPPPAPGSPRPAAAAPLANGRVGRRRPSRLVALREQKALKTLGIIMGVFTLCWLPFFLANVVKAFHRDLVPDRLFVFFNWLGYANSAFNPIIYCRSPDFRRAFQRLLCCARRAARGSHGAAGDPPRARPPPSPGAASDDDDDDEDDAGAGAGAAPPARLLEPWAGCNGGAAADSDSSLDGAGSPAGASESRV
# From the text: As a standard compound pronethalol was taken into consideration. Pronethalol, i.e. 2-isopropylamino-1-([…])-ethanol, is a known β-blocking agent.
# LD50 os (acute toxicity) = settings: in vivo, po
SMILES,ED50 (β-receptors) [mg/kg],LD50 (LD50 os (acute toxicity)) [mg/kg],"ED50 (β-receptors; conscious dogs, i.v.) [mg/kg]"
"CC(C)NCC(O)COc1cccc2c1C(=O)OC2.Cl (centres unmarked) [Example 1, 7-(2-Hydroxy-3-isopropylamino-propoxy)-phthalide hydrochloride]",0.01,> 500,
"CC(C)NCC(O)COc1ccc2c(c1)C(=O)OC2 (centres unmarked) [Example 2, 6-(2-Hydroxy-3-isopropylamino-propoxy)-phthalide]",,> 500,0.3
"CC(C)(C)NCC(O)COc1cccc2c1C(=O)OC2.Cl (centres unmarked) [Example 5, 7-(2-Hydroxy-3-tert-butylamino-propoxy)-phthalide hydrochloride]",,> 500,
"CC(C)NCC(O)COc1ccc2c(c1)C(=O)OCC2.Cl (centres unmarked) [Example 6, 7-(2-Hydroxy-3-isopropylamino-propoxy)-1-isochromanone hydrochloride]",0.1,> 500,
"CC(C)(C)NCC(O)COc1ccc2c(c1)C(=O)OCC2.Cl (centres unmarked) [Example 7, 7-(2-Hydroxy-3-tert-butylamino-propoxy)-1-isochromanone hydrochloride]",0.055,> 500,
"CC(C)(C)NCC(O)COc1cccc2c1COC2=O.Cl (centres unmarked) [Example 8, 4-(2-Hydroxy-3-tert-butylaminopropoxy)-phthalide hydrochloride]",0.07,> 500,
"CC(C)(C)NCC(O)COc1ccc2c(c1)C(=O)OC2.Cl (centres unmarked) [Example 9, 6-(2-Hydroxy-3-tert-butylamino-propoxy)-phthalide hydrochloride]",0.1,> 500,
"CC(C)CNCC(O)COc1cccc2c1C(=O)OC2.Cl (centres unmarked) [Example 10, 7-(2-Hydroxy-3-isobutylamino-propoxy)-phthalide hydrochloride]",0.1,> 500,
"CC(C)(C)NCC(O)COc1cccc2c1C(=O)OCC2.Cl (centres unmarked) [Example 12, 8-(2-Hydroxy-3-tert-butylamino-propoxy)-1-isochromanone hydrochloride]",0.003,> 500,
"COc1cc(OCC(O)CNC(C)(C)C)c2c(c1)C(=O)OC(C)C2.Cl (centres unmarked) [Example 13, 5-(2-Hydroxy-3-tert-butylamino-propoxy)-7-methoxy-3-methyl-1-isochromanone hydrochloride]",0.005,> 500,
"CCC1Cc2c(OCC(O)CNC(C)(C)C)cc(OC)cc2C(=O)O1.Cl (centres unmarked) [Example 14, 3-Ethyl-5-(2-hydroxy-3-tert-butylamino-propoxy)-7-methoxy-1-isochromanone hydrochloride]",0.1,> 500,
"COc1cc(OCC(O)CNC(C)(C)C)c2c(c1)C(=O)OC(C)(C)C2.O=C(O)C(=O)O (centres unmarked) [Example 15, 5-(2-Hydroxy-tert-butylamino-propoxy)-7-methoxy-3,3-dimethyl-1-isochromanone oxalate]",0.018,> 500,
